One series has as its target T1, tau protein (Homo sapiens, UniProt P10636).
T1 construct: expressed in transfected cells
Kind of series: Tau protein aggregation inhibition in tau-BiFC cell model. The format is cell-based. To be noted: tau-BiFC cells treated together with Forskolin, 48 hours. As for the experimental part: (§1) In order to select new tau protein aggregation-inhibiting materials, tau-BiFC cell models, in which it is easy to observe the formation of tau oligomers in living cells, were used. […] After 48 hours, intracellular nuclei were stained using Hoechst (treatment concentration 2 μg/mL), and BiFC fluorescence intensity was automatically quantified using Operetta (PerkinElmer) to count stained nuclei in each well from the total well plates. […] Further, the degree of cytotoxicity induced by the newly synthesized compound is also based on the 100% survival rate of the group treated with Forskolin alone, and the cytotoxicity value of the compound was calculated by the equation “number of stained nuclei in the group treated with the compound/number of stained nuclei in the group treated with Forskolin x 100”.
(§2) In order to evaluate dose-dependent tau protein aggregation inhibition effects of the compounds selected according to Experimental Example 1, the selected compounds were treated in tau-BiFC cells at concentrations of 0.03 µM, […], 0.3 μM, 1 μM, 3 μM, 10 μM, and 30 μM, respectively, together with Forskolin (treatment concentration 30 µM) as a tau protein aggregation inducing material. After 48 hours, tau protein aggregation reaction and cytotoxicity degree were analyzed by observing cell images. The IC50 and toxicity of the compounds were analyzed by nonlinear regression analysis of prism software (Graph Pad).

In a further series the test system is Tau-BiFC cells. Kind of series: Cytotoxicity (cell survival rate) in tau-BiFC cells. To be noted: group treated with Forskolin alone = 100%. As for the experimental part: as §1, §2
Series [1] can be described thus: Pharmacokinetics in SD rat (plasma PK parameters). The series is classed as in vivo. The method, then: Specifically, an SD rat of 7 to 8 weeks of age (Core Tech, Hana Trading Co., Ltd.) having a body weight of about 250 g to 300 g was purchased, and was managed in a simple breeding room for small animals set to a temperature of 22° C.±2° C., a relative humidity of 50%±5%, a lighting time of 12 hours (light up at 8:00 A.M., turn off at 8:00 P.M.), and an illuminance of 150 lux to 300 lux. During the entire test period, feed was freely provided, RO water was freely provided, and fasting was performed for 16 hours before the oral administration of a drug. After preparing a drug under the conditions shown in Table 5 below, the drug was intravenously injected (IV) or orally administered (PO). 500 µL of transfused blood was collected in a tube containing sodium heparin and centrifuged at 2° C. to 8° C. at 8,000 rpm for 6 minutes to obtain plasma from the blood. The obtained plasma was added to 180 μL of acetonitrile containing internal standard materials, vortexed, and then centrifuged at 15,000 rpm at 4° C. for 5 minutes to obtain a supernatant. The obtained supernatant was analyzed by LC-MS/MS.
Specific PK parameters were acquired using the Phoenix WinNonlin version 6.4 program (Phersight, USA) and wore calculated with a non-compartmental analysis model.

T1 sequence (P10636 2-441 isoform P10636-8 limits assumed): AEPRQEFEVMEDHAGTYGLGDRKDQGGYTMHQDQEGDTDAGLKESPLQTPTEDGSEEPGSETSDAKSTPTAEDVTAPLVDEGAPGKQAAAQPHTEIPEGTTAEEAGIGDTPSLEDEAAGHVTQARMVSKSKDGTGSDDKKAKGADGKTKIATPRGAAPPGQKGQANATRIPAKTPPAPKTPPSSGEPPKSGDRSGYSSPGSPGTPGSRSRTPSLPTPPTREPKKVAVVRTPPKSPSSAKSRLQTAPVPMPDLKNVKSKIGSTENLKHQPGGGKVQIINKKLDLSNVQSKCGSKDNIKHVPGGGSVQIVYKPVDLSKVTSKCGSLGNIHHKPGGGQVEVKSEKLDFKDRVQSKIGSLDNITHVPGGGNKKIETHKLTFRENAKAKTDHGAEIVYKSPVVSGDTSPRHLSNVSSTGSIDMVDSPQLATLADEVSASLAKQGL

The IC50 is the concentration that inhibits the measured activity by half. A lower IC50 goes with greater potency. Molecule `Cc1nc(-c2ccc(NN=C(C#N)C#N)cc2)ncc1F` [Compound 3, (4-(5-fluoro-4-methylpyrimidin-2-yl)phenyl)carbonohydrazonoyl dicyanide] registered a 50% inhibitory concentration (IC50) at tau protein of 2400 nM. Further, in the series on Tau-BiFC cells, the “Cell survival rate (% @ 10 μM)” value turned out to be 66%.

Regarding `CCc1ccnc(-c2ccc(NN=C(C#N)C#N)cc2)n1` [Compound 6, (4-(4-ethylpyrimidin-2-yl)phenyl)carbonohydrazonoyl dicyanide], half-maximal inhibition on tau protein (IC50) was put at 900 nM. Besides, in the series on Tau-BiFC cells, the “Cell survival rate (% @ 10 μM)” value was found to be 147.1%.

Molecule `N#CC(C#N)=NNc1ccc(-c2ccccn2)cc1` [Compound 10, (4-(pyridin-2-yl)phenyl)carbonohydrazonoyl dicyanide] returned an IC50 against tau protein of 520 nM. The “Cell survival rate (% @ 10 μM)” value with Tau-BiFC cells is given as 110.1%.

As to `N#CC(C#N)=NNc1ccc(-c2cncs2)cc1` [Compound 20, (4-(thiazol-5-yl)phenyl)carbonohydrazonoyl dicyanide], at tau protein, the IC50 was 600 nM. The “Cell survival rate (% @ 10 μM)” value in the series with Tau-BiFC cells came out at 90%.

On to `N#CC(C#N)=NNc1ccc(-c2ncccn2)cc1F` [Compound 38, (2-fluoro-4-(pyrimidin-2-yl)phenyl)carbonohydrazonoyl dicyanide], for which the IC50 against tau protein turned out to be 940 nM. Moreover, the “Cell survival rate (% @ 10 μM)” value with Tau-BiFC cells came to 88.9%.

At tau protein, `N#CC(C#N)=NNc1ccc(-c2ncccn2)c(F)c1` [Compound 39, (3-fluoro-4-(pyrimidin-2-yl)phenyl)carbonohydrazonoyl dicyanide] displayed an IC50 of 1510 nM. Besides, the “Cell survival rate (% @ 10 μM)” value in the series with Tau-BiFC cells worked out at 89.8%.

The molecule `Cc1ccnc(-c2ccc(NN=C(C#N)C#N)cc2F)n1` [Compound 40, (3-fluoro-4-(4-methylpyrimidin-2-yl)phenyl)carbonohydrazonoyl dicyanide] yielded an IC50 on tau protein of 2500 nM. The “Cell survival rate (% @ 10 μM)” value in the series on Tau-BiFC cells is reported as 101.3%.

In the case of `COc1cc(-c2ncc(C)cn2)ccc1NN=C(C#N)C#N` [Compound 41, (2-methoxy-4-(5-methylpyrimidin-2-yl)phenyl)carbonohydrazonoyl dicyanide], on tau protein, the IC50 was determined as 7000 nM. Further, the “Cell survival rate (% @ 10 μM)” value in the series on Tau-BiFC cells stood at 126.8%.

As for `COc1cc(-c2ncccn2)ccc1NN=C(C#N)C#N` [Compound 43, (2-methoxy-4-(pyrimidin-2-yl)phenyl)carbonohydrazonoyl dicyanide], the IC50 against tau protein is 1840 nM. The “Cell survival rate (% @ 10 μM)” value in the series with Tau-BiFC cells worked out at 112.3%.

On tau protein, `N#CC(C#N)=NNc1ccc(-c2cnc3nccn3c2)cc1` [Compound 51, (4-(imidazo[1,2-a]pyrimidin-6-yl)phenyl)carbonohydrazonoyl dicyanide] yielded an IC50 of 7420 nM. Besides, the “Cell survival rate (% @ 10 μM)” value with Tau-BiFC cells was found to be 84.2%.

On tau protein, `N#CC(C#N)=NNc1ccc(-c2cnc3ccccc3n2)cc1` [Compound 52, (4-(quinoxalin-2-yl)phenyl)carbonohydrazonoyl dicyanide] showed an IC50 of 1400 nM. Moreover, the “Cell survival rate (% @ 10 μM)” value in the series with Tau-BiFC cells was 139.6%.

At tau protein, `N#CC(C#N)=NNc1ccc(-c2ccc3nccn3c2)cc1` [Compound 53, (4-(imidazo[1,2-a]pyridin-6-yl)phenyl)carbonohydrazonoyl dicyanide] came in with an IC50 of 1300 nM. Besides, the “Cell survival rate (% @ 10 μM)” value in the series on Tau-BiFC cells was determined as 158.2%.

The term Cmax denotes the peak of the concentration-time curve. As a reminder, the Tmax is the time at which the peak concentration occurs. For orientation: clearance means the rate of elimination divided by the concentration. Broadly, the half-life is how long it takes for the measured level to halve. The low end stands for rapid decline, the high end for slow decline. As for `Cn1cc2cc(-c3ccc(NN=C(C#N)C#N)cc3)ccc2n1` [Compound 56, (4-(2-methyl-2H-indazol-5-yl)phenyl)carbonohydrazonoyl dicyanide], in series [1] (SD rat plasma, IV 2 mg/kg), the AUCall is 17481.28 hr, ng/mL; the Cmax was determined as 9140 ng/mL; the Tmax worked out at 0.12 h; the clearance was found to be 1.85 mL/min/kg. Also, the half-life in series [1] (SD rat plasma, IV 2 mg/kg) is 1.57 h. Further, in series [1] (SD rat plasma, PO 10 mg/kg), the AUCall is given as 77995.11 hr, ng/mL; the Cmax was 11400 ng/mL; the Tmax is 1.5 h; the half-life was 3.21 h. This molecule also returned a F in series [1] (SD rat, PO 10 mg/kg versus IV) of 89.2%.

On tau protein, `N#CC(C#N)=NNc1ccc(-c2ccc3[nH]ccc3c2)cc1` [Compound 58, (4-(1H-indol-5-yl)phenyl)carbonohydrazonoyl dicyanide] returned an IC50 of 1200 nM. Moreover, the “Cell survival rate (% @ 10 μM)” value in the series on Tau-BiFC cells is on record as 113.8%.

For `COc1cccc2sc(NN=C(C#N)C#N)nc12` [Compound 59, (4-methoxybenzo[d]thiazol-2-yl)carbonohydrazonoyl dicyanide], 500 nM corresponded to half-maximal inhibition on tau protein (IC50). Moreover, in the series with Tau-BiFC cells, the “Cell survival rate (% @ 10 μM)” value is reported as 120.3%.

`N#CC(C#N)=NNc1cnc2ccccc2c1` [Compound 64, quinolin-3-ylcarbonohydrazonoyl dicyanide]: at tau protein, the IC50 worked out at 190 nM. For the same molecule, in the series with Tau-BiFC cells, the “Cell survival rate (% @ 10 μM)” value was 112.5%.

With `Cn1cc2ccc(NN=C(C#N)C#N)cc2n1` [Compound 65, (2-methyl-2H-indazol-6-yl)carbonohydrazonoyl dicyanide], on tau protein, half-maximal inhibition (IC50) required 72 nM. Besides, the “Cell survival rate (% @ 10 μM)” value in the series on Tau-BiFC cells turned out to be 103.3%.

In turn, `Cn1ncc2cc(NN=C(C#N)C#N)ccc21` [Compound 66, (1-methyl-1H-indazol-5-yl)carbonohydrazonoyl dicyanide] registered an IC50 against tau protein of 12 nM. In the series with Tau-BiFC cells, the “Cell survival rate (% @ 10 μM)” value came to 96.8%.

Molecule `Cn1ccc2cc(NN=C(C#N)C#N)ccc21` [Compound 68, (1-methyl-1H-indol-5-yl)carbonohydrazonoyl dicyanide] returned an IC50 against tau protein of 60 nM. For the same molecule, the “Cell survival rate (% @ 10 μM)” value with Tau-BiFC cells is reported as 177.2%.

The molecule `N#CC(C#N)=NNc1ccc2[nH]ccc2c1` [Compound 71, (1H-indol-5-yl)carbonohydrazonoyl dicyanide] came in with an IC50 against tau protein of 860 nM. The “Cell survival rate (% @ 10 μM)” value with Tau-BiFC cells came to 116.4%.

`Cc1n[nH]c2cc(NN=C(C#N)C#N)ccc12` [Compound 73, (3-methyl-1H-indazol-6-yl)carbonohydrazonoyl dicyanide] had an IC50 against tau protein of 1100 nM. Also, in the series on Tau-BiFC cells, the “Cell survival rate (% @ 10 μM)” value is recorded as 138.5%.

At tau protein, `Cn1ccc2cc(NN=C(C#N)C#N)cnc21` [Compound 76, (1-methyl-1H-pyrrolo[2,3-b]pyridin-5-yl)carbonohydrazonoyl dicyanide] yielded an IC50 of 40 nM. Also, the “Cell survival rate (% @ 10 μM)” value in the series with Tau-BiFC cells was determined as 195.8%.

At tau protein, `Cc1c[nH]c2ncc(NN=C(C#N)C#N)cc12` [Compound 82, (3-methyl-1H-pyrrolo[2,3-b]pyridin-5-yl)carbonohydrazonoyl dicyanide] registered an IC50 of 430 nM. The “Cell survival rate (% @ 10 μM)” value in the series on Tau-BiFC cells was determined as 120.2%.

In the case of `N#CC(C#N)=NNc1ccc2nc(NC(=O)c3cncnc3)sc2c1` [Compound 94, (2-(pyrimidine-5-carboxamido)benzo[d]thiazol-6-yl)carbonohydrazonoyl dicyanide], the IC50 at tau protein is 2700 nM. Besides, the “Cell survival rate (% @ 10 μM)” value in the series on Tau-BiFC cells was 95.3%.

For `Cc1ncc(C(=O)Nc2nc3ccc(NN=C(C#N)C#N)cc3s2)cn1` [Compound 95, (2-(2-methylpyrimidine-5-carboxamido)benzo[d]thiazol-6-yl)carbonohydrazonoyl dicyanide], 800 nM corresponded to half-maximal inhibition at tau protein (IC50). In the series on Tau-BiFC cells, the “Cell survival rate (% @ 10 μM)” value is given as 100.8%.

In turn, `Cc1ncncc1C(=O)Nc1nc2ccc(NN=C(C#N)C#N)cc2s1` [Compound 96, (2-(4-methylpyrimidine-5-carboxamido)benzo[d]thiazol-6-yl)carbonohydrazonoyl dicyanide] gave an IC50 on tau protein of 400 nM. Besides, in the series on Tau-BiFC cells, the “Cell survival rate (% @ 10 μM)” value worked out at 106.1%.

Molecule `C#Cc1cnc(-c2ccc(NN=C(C#N)C#N)cc2)nc1` [Compound 149, (4-(5-ethynylpyrimidin-2-yl)phenyl)carbohydrazonoyl dicyanide] displayed an IC50 at tau protein of 100 nM. Further, the “Cell survival rate (% @ 10 μM)” value with Tau-BiFC cells came out at 113.9%.

In the case of “(2-(pyrazine-2-carboxamido)benzo[d]thiazol-5-yl)carbonohydrazonoyl dicyanide [Compound 99]”, on tau protein, 100 nM corresponded to half-maximal inhibition (IC50). For the same molecule, the “Cell survival rate (% @ 10 μM)” value with Tau-BiFC cells was 113.1%.
